Like-named read-outs stand apart in the source and are kept apart here.
What was measured:
Vps34 enzyme = Vps34 enzyme (Homo sapiens (Human), UniProt Q8NEB9); experiment: Vps34 biochemical assay (Adapta kinase assay); conditions: 20 μM ATP and 200 μM PI:PS in substrate mix, 1 h at room temperature, read-out: Median IC50 uM Adapta
Protocol: Dilution series of compounds of the invention were prepared in DMSO at 100 times the final assay concentration (n1=n0/3 in 10 points). The compounds were further diluted to 4 times the assay concentration in assay buffer (Life technologies buffer Q, PV5125, diluted 5 times supplemented with 2 mM DTT and 2 mM MnCl2). 2.5 μl of the diluted compounds were added to a 384 well assay plate followed by 2.5 μl of 16.5 nM Vps34 enzyme (Life technologies, PV5126). Enzyme and compounds were pre-incubated at rt for 15 min. Then 5 μl of substrate mix containing 20 μM ATP (Life technologies, PV3227) and 200 μM PI:PS substrate (Life technologies, PV5122) in assay buffer was added to the wells containing compound and enzyme. Mixing was performed by pipetting several times. The reaction was incubated at room temperature for 1 h. Then 5 μl stop-detection mix, prepared as described in the Adapta kinase assay kit instructions (Life technologies, PV5099) containing Adapta Eu-anti-ADP antibody (2.3 nM), Alexa Fluor 647 ADP tracer (9 nM) and EDTA (30 mM) in TR-FRET buffer, was added to quench the reaction. Mixing was performed by pipetting several times. The assay plate was then incubated at room temperature for 30 min and read with Artemis micro plate reader. Percent inhibition of the compounds as compared to DMSO treated control samples was calculated. By the use of Dotmatics software compound concentration versus percent inhibition was fitted to generate IC50 values.

[1] = test system: autophagy in HOS cells (GFP-LC3); experiment: High content screening autophagy assay (GFP-LC3 foci); type: cell-based, Human; conditions: foci area per cell, read-out: Median IC50 (uM) Cellular assay
Protocol: Human osteosarcoma cells (HOS) stably expressing a Green Fluorescent Protein (GFP) tagged LC3 (GFP-LC3) were used to determine the inhibitory effect on autophagy of proprietary compounds. For that purpose, autophagy was activated by using the mTOR inhibitor KU-0063794 at 500 nM in the presence of Bafilomycin A1 (Sigma-Aldrich) at 5 nM. Shortly, cells were plated overnight in clear bottom 96-well plates in DMEM-High Modified media (Hi-Clone Cat #SH30285.01). At the start of the experiment, the media was removed and replaced with fresh media containing the mTOR inhibitor, Bafilomycin A1 and the vehicle or a test compound as indicated. After 6 hours the media was removed, cells were washed twice with ice-cold phosphate buffered saline (PBS) and fixed with 4% paraformaldehyde for 20 minutes at room temperature. Then the cells were washed twice with ice-cold PBS before adding Hoechst 33342 at 1 μg/ml in PBS for nuclear staining. After incubation overnight at 4° C., cells were washed once with PBS to remove the excess of dye and 100 μl of PBS was added to each well. Images were acquired at 20× magnification, 6 images per well, using the ImageXpress automated microscope (Molecular Devices Inc.) and analyzed with MetaXpress software to identify LC3-GFP foci. Foci area per cell values were used to generate dose response curves and IC50 values were calculated using the non-linear fitting analysis in GraphPad Prism software.

[2] = Homo sapiens, HOS, 6 h, HOS cells with GFP-LC3, autophagy activated by KU-0063794 500 nM with Bafilomycin A1 5 nM

Sequence of Vps34 enzyme (Q8NEB9 whole entry): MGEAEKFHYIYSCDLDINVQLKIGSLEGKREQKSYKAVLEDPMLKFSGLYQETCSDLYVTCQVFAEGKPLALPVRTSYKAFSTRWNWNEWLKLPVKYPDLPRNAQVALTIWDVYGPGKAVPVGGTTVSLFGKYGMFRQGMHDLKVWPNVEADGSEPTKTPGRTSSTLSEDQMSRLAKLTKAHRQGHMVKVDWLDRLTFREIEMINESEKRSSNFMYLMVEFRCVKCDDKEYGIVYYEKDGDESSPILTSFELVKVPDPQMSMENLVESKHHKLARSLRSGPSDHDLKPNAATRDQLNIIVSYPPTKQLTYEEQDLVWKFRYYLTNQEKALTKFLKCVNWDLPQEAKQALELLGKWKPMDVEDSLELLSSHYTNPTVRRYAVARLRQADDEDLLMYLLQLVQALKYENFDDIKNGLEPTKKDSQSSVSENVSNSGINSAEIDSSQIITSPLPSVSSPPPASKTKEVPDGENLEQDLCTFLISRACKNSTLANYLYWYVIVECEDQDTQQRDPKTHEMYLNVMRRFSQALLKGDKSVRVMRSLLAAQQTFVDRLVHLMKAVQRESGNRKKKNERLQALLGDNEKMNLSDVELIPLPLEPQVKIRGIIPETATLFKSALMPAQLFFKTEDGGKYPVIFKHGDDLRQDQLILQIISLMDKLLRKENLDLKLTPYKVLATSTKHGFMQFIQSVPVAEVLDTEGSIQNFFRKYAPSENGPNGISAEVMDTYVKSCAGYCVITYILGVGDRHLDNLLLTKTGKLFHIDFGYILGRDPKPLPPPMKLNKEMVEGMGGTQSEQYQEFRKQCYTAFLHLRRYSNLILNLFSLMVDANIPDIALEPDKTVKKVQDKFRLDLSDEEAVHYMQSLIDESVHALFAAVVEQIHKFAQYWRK

SMILES	IC50 (Vps34 enzyme) [µM]	IC50 [1, 2] [µM]	IC50 ([1]; HOS cells with GFP-LC3, autophagy activated by KU-0063794 500 nM with Bafilomycin A1 5 nM, 6 hours) [µM]
C[C@@H]1COCCN1c1cc(N2CCCC2c2cccc(F)c2)[nH]c(=O)c1 (mixture of isomers) [Example 13, (R) and (S) 6-[2-(3-fluorophenyl)pyrrolidin-1-yl]-4-[(3R)-3-methylmorpholin-4-yl]-1H-pyridin-2-one]	0.02	2	–
COc1cccc(C2CCCN2c2cc(N3CCOC[C@H]3C)cc(=O)[nH]2)c1 (mixture of isomers) [Example 17, (R) and (S) 6-[2-(3-methoxyphenyl)pyrrolidin-1-yl]-4-[(3R)-3-methylmorpholin-4-yl]-1H-pyridin-2-one]	0.01	0.1	–
C[C@@H]1COCCN1c1cc(N2CCCC2c2cccc(Cl)c2)[nH]c(=O)c1 (mixture of isomers) [Example 36, (R) and (S) 6-[2-(3-chlorophenyl)pyrrolidin-1-yl]-4-[(3R)-3-methylmorpholin-4-yl]-1H-pyridin-2-one]	0.02	0.03	–
COc1cccc(C2CCCN2c2cc(N3CCOC[C@H]3C)cc(=O)[nH]2)c1 (single isomer, unassigned) [Example 17_2]	0.006	0.3	–
C[C@@H]1COCCN1c1cc(N2CCCC2c2ccccc2)[nH]c(=O)c1 (single isomer, unassigned) [Example 18_2]	0.02	1	–
CCn1ccc(C2CCCN2c2cc(N3CCOC[C@H]3C)cc(=O)[nH]2)n1 (single isomer, unassigned) [Example 21_2]	0.3	–	–
Cc1ccc(C2CCCN2c2cc(N3CCOC[C@H]3C)cc(=O)[nH]2)o1 (single isomer, unassigned) [Example 22_1]	0.04	–	–
Cc1ccc(C2CCCN2c2cc(N3CCOC[C@H]3C)cc(=O)[nH]2)o1 (single isomer, unassigned) [Example 22_2]	0.1	–	–
C[C@@H]1COCCN1c1cc(N2CCCC2c2cccc(Cl)c2)[nH]c(=O)c1 (single isomer, unassigned) [Example 36_1]	0.01	0.4	–
C[C@@H]1COCCN1c1cc(N2CCCC2c2cccc(Cl)c2)[nH]c(=O)c1 (single isomer, unassigned) [Example 36_2]	0.02	–	0.7
C[C@@H]1COCCN1c1cc(N2CCCC2c2ccccn2)[nH]c(=O)c1 (single isomer, unassigned) [Example 38_1]	0.05	–	–
C[C@@H]1COCCN1c1cc(N2CCCC2c2ccccn2)[nH]c(=O)c1 (single isomer, unassigned) [Example 38_2]	0.2	–	–
Cc1cc(C2CCCN2c2cc(N3CCOC[C@H]3C)cc(=O)[nH]2)no1 (single isomer, unassigned) [Example 40_1]	0.1	–	–
COc1cccc(C2CCCCN2c2cc(N3CCOC[C@H]3C)cc(=O)[nH]2)c1 (single isomer, unassigned) [Example 44_2]	0.006	–	–
Cn1c(N2CCCC2c2ccccc2)cc(N2CCOCC2)cc1=O (centres unmarked) [Example 2, 1-methyl-4-morpholino-6-(2-phenylpyrrolidin-1-yl)pyridin-2-one]	0.1	–	–
C[C@@H]1COCCN1c1cc(N2CC[S+]([O-])CC2)[nH]c(=O)c1 [Example 27, 4-[(3R)-3-methylmorpholin-4-yl]-6-(1-oxo-1,4-thiazinan-4-yl)-1H-pyridin-2-one]	0.4	–	–
C[C@@H]1COCCN1c1cc(N2CCS(=O)(=O)CC2)[nH]c(=O)c1 [Example 28, 6-(1,1-dioxo-1,4-thiazinan-4-yl)-4-[(3R)-3-methylmorpholin-4-yl]-1H-pyridin-2-one]	0.4	–	–
CC(=O)N1CCN(c2cc(N3CCOC[C@H]3C)cc(=O)[nH]2)CC1 [Example 29, 6-(4-acetylpiperazin-1-yl)-4-[(3R)-3-methylmorpholin-4-yl]-1H-pyridin-2-one]	0.2	–	–
C[C@@H]1COCCN1c1cc(N2CCN(C)CC2c2ccccc2)[nH]c(=O)c1 (stereo partly drawn) [Example 31, 4-[(3R)-3-methylmorpholin-4-yl]-6-(4-methyl-2-phenyl-piperazin-1-yl)-1H-pyridin-2-one]	0.3	–	–

Second part, the molecule after the results:

IC50 (Vps34 enzyme) [µM]	IC50 [1, 2] [µM]	IC50 ([1]; HOS cells with GFP-LC3, autophagy activated by KU-0063794 500 nM with Bafilomycin A1 5 nM, 6 hours) [µM]	SMILES
0.04	0.3	–	C[C@@H]1COCCN1c1cc(N2CCCC2c2cccc(C(F)(F)F)c2)[nH]c(=O)c1 (mixture of isomers) [Example 16, (R) and (S) 4-[(3R)-3-methylmorpholin-4-yl]-6-[2-[3-(trifluoromethyl)phenyl]pyrrolidin-1-yl]-1H-pyridin-2-one]
0.004	0.02	–	C[C@@H]1COCCN1c1cc(N2CCCCC2C(F)(F)F)[nH]c(=O)c1 (mixture of isomers) [Example 25, (R) and (S) 4-[(3R)-3-methylmorpholin-4-yl]-6-[2-(trifluoromethyl)-1-piperidyl]-1H-pyridin-2-one]
0.01	1.4	–	CC1COCCN1c1cc(N2CCOC[C@H]2C)cc(=O)[nH]1 (single isomer, unassigned) [Example 24_1]
0.2	–	–	CC1COCCN1c1cc(N2CCOC[C@H]2C)cc(=O)[nH]1 (single isomer, unassigned) [Example 24_2]
0.002	0.03	–	C[C@@H]1COCCN1c1cc(N2CCCCC2C(F)(F)F)[nH]c(=O)c1 (single isomer, unassigned) [Example 25_1]
0.08	–	–	C[C@@H]1COCCN1c1cc(N2CCCCC2C(F)(F)F)[nH]c(=O)c1 (single isomer, unassigned) [Example 25_2]
0.04	0.2	–	C[C@@H]1COCCN1c1cc(N2CCOCC2c2ccccc2)[nH]c(=O)c1 (single isomer, unassigned) [Example 26_1]
0.3	–	–	C[C@@H]1COCCN1c1cc(N2CCOCC2c2ccccc2)[nH]c(=O)c1 (single isomer, unassigned) [Example 26_2]
0.003	0.03	–	C[C@@H]1COCCN1c1cc(N2CCOCC2C(F)(F)F)[nH]c(=O)c1 (single isomer, unassigned) [Example 43_1]
0.1	–	–	C[C@@H]1COCCN1c1cc(N2CCOCC2C(F)(F)F)[nH]c(=O)c1 (single isomer, unassigned) [Example 43_2]
0.01	–	–	C[C@@H]1COCCN1c1cc(N2CCN(C(=O)C3CCCO3)CC2C(F)(F)F)[nH]c(=O)c1 (single isomer, unassigned) [Example 48_1]
0.02	–	–	C[C@@H]1COCCN1c1cc(N2CCN(C(=O)C3CCCO3)CC2C(F)(F)F)[nH]c(=O)c1 (single isomer, unassigned) [Example 48_2]
0.4	–	–	C[C@@H]1COCCN1c1cc(N2CCCC2C(=O)N(C)C)[nH]c(=O)c1 (stereo partly drawn) [Example 10, N,N-dimethyl-1-[4-[(3R)-3-methylmorpholin-4-yl]-6-oxo-1H-pyridin-2-yl]pyrrolidine-2-carboxamide]
0.03	–	–	C[C@@H]1COCCN1c1cc(N2CCOCC2C2CC2)[nH]c(=O)c1 (stereo partly drawn) [Example 33, 6-(3-cyclopropylmorpholin-4-yl)-4-[(3R)-3-methylmorpholin-4-yl]-1H-pyridin-2-one]
0.1	–	–	C[C@@H]1COCCN1c1cc(N2CCC[C@H]2C(F)(F)F)[nH]c(=O)c1 [Example 34, 4-[(3R)-3-methylmorpholin-4-yl]-6-[(2S)-2-(trifluoromethyl)pyrrolidin-1-yl]-1H-pyridin-2-one]
0.03	–	–	C[C@@H]1COCCN1c1cc(N2CCOCC23CCC3)[nH]c(=O)c1 [Example 42, 4-[(3R)-3-methylmorpholin-4-yl]-6-(8-oxa-5-azaspiro[3.5]nonan-5-yl)-1H-pyridin-2-one]
0.005	–	–	C[C@@H]1COCCN1c1cc(N2CCN(C(=O)c3cncc(F)c3)CC2C(F)(F)F)[nH]c(=O)c1 (stereo partly drawn) [Example 46, 6-[4-(5-fluoropyridine-3-carbonyl)-2-(trifluoromethyl)piperazin-1-yl]-4-[(3R)-3-methylmorpholin-4-yl]-1H-pyridin-2-one]
0.03	–	–	C[C@@H]1COCCN1c1cc(N2CCN(C)CC2C(F)(F)F)[nH]c(=O)c1 (stereo partly drawn) [Example 49, 4-[(3R)-3-methylmorpholin-4-yl]-6-[4-methyl-2-(trifluoromethyl)piperazin-1-yl]-1H-pyridin-2-one]
